Consider 19 compounds from patent US6903113B2, “Urea substituted imidazopyridines” (3M Innovative Properties Company, priority 2000, dated 2005).

One assay deals with interferon (α). Briefly: Cytokine Induction in Human Cells: interferon (α) by ELISA. The format is cell-based. Further details: key to Lowest Effective Concentration Interferon: A “*” indicates that no induction was seen at any of the tested concentrations. Particulars: human PBMC, 18 to 24 hours incubation, compounds generally tested at 30-0.014 μM; for minimal effective concentration: read-out: Lowest Effective Concentration Interferon. An excerpt:
(§1) An in vitro human blood cell system is used to assess cytokine induction. Activity is based on the measurement of interferon and tumor necrosis factor (α) (IFN and TNF, respectively) secreted into culture media as described by Testerman et. al. In “Cytokine Induction by the Immunomodulators Imiquimod and S-27609”, Journal of Leukocyte Biology, 58, 365-372 (September, 1995).
(§2) Whole blood from healthy human donors is collected by venipuncture into EDTA vacutainer tubes. Peripheral blood mononuclear cells (PBMC) are separated from whole blood by density gradient centrifugation using Histopaque®-1077. Blood is diluted 1:1 with Dulbecco's Phosphate Buffered Saline (DPBS) or Hank's Balanced Salts Solution (HBSS). The PBMC layer is collected and washed twice with DPBS or HBSS and resuspended at 4×10^6 cells/mL in RPMI complete. The PBMC suspension is added to 48 well flat bottom sterile tissue culture plates (Costar, Cambridge, Mass. or Becton Dickinson Labware, Lincoln Park, N.J.) containing an equal volume of RPMI complete media containing test compound.
(§3) The compounds are solubilized in dimethyl sulfoxide (DMSO). The DMSO concentration should not exceed a final concentration of 1% for addition to the culture wells. The compounds are generally tested at concentrations ranging from 30-0.014 μM.
(§4) The solution of test compound is added at 60 μM to the first well containing RPMI complete and serial 3 fold dilutions are made in the wells. The PBMC suspension is then added to the wells in an equal volume, bringing the test compound concentrations to the desired range (30-0.014 μM). The final concentration of PBMC suspension is 2×10^6 cells/mL. The plates are covered with sterile plastic lids, mixed gently and then incubated for 18 to 24 hours at 37° C. in a 5% carbon dioxide atmosphere.
(§5) Following incubation the plates are centrifuged for 10 minutes at 1000 rpm (˜200×g) at 4° C. The cell-free culture supernatant is removed with a sterile polypropylene pipet and transferred to sterile polypropylene tubes. Samples are maintained at −30 to −70° C. until analysis. The samples are analyzed for interferon (α) by ELISA and for tumor necrosis factor (α) by ELISA or IGEN Assay
Interferon (α) concentration is determined by ELISA using a Human Multi-Species kit from PBL Biomedical Laboratories, New Brunswick, N.J. Results are expressed in pg/mL.
(§6) The table below lists the lowest concentration found to induce interferon and the lowest concentration found to induce tumor necrosis factor for each compound.

Assay [1] has as its system tumor necrosis factor (α). As to the kind of experiment: Cytokine Induction in Human Cells: tumor necrosis factor (α) by ELISA or IGEN Assay. The format is cell-based. Further details: key to Lowest Effective Concentration Tumor Necrosis Factor: A “*” indicates that no induction was seen at any of the tested concentrations. Particulars: human PBMC, 18 to 24 hours incubation, compounds generally tested at 30-0.014 μM; for minimal effective concentration: read-out: Lowest Effective Concentration Tumor Necrosis Factor.
Text: as §1, §2, §3, §4, §5
Tumor necrosis factor (α) (TNF) concentration is determined using ELISA kits available from Biosource International, Camarillo, Calif. Alternately, the TNF concentration can be determined by Origen® M-Series Immunoassay and read on an IGEN M-8 analyzer from IGEN International, Gaithersburg, Md. The immunoassay uses a human TNF capture and detection antibody pair from Biosource International, Camarillo, Calif. Results are expressed in pg/mL.
as §6

Each structure is given as a SMILES string.

Take `CCOCc1nc2c(N)nc(C)cc2n1CCCCNC(=O)NS(=O)(=O)c1ccc(C)cc1` [Example 48]: the “Lowest Effective Concentration Interferon” value in the assay with interferon (α) was “*”. The “Lowest Effective Concentration Tumor Necrosis Factor” value in assay [1] is recorded as “*”.
For the compound `CCOCc1nc2c(N)nc(C)cc2n1CCCCNC(=S)NC` [Example 49], the minimal effective concentration in the assay on interferon (α) was found to be 3.33 µM; in assay [1], 30 µM.
In the case of `CCOCc1nc2c(N)nc(C)cc2n1CCCCNC(=S)Nc1ccccc1` [Example 50], the minimal effective concentration in the assay on interferon (α) was 0.37 µM; in assay [1], 3.33 µM.
Regarding `CCOCc1nc2c(N)nc(C)cc2n1CCCCNC(=S)NCCc1ccccc1` [Example 51], the minimal effective concentration with interferon (α) came to 3.33 µM; in assay [1], 10 µM.
For `CCOCc1nc2c(N)nc(C)cc2n1CCCCNC(=S)Nc1ccc(OC)cc1` [Example 52] the same measures were 0.37 µM and 3.33 µM.
Consider `CCOCc1nc2c(N)nc(C)cc2n1CCCCNC(=S)NC(=O)c1ccco1` [Example 53, N-{4-[4-amino-2-(ethoxymethyl)-6-methyl-1H-imidazo[4,5-c]pyridin-1-yl]butyl}-N′-(2-furoyl)thiourea], for which the minimal effective concentration in the assay with interferon (α) worked out at 0.37 µM; in assay [1] it was 3.33 µM.
Consider `CCOCc1nc2c(N)nc(C)c(C)c2n1CCC1CCN(C(=O)NC(C)C)CC1` [Example 54], for which the minimal effective concentration amounted to 1.11 µM in the assay on interferon (α) and 3.33 µM in assay [1].
On to `CCOCc1nc2c(N)nc(C)c(C)c2n1CCC1CCN(C(=O)NC(C)(C)C)CC1` [Example 55], for which the minimal effective concentration was 3.33 µM in the assay with interferon (α) and 10 µM in assay [1].
In the case of `CCCCNC(=O)N1CCC(CCn2c(COCC)nc3c(N)nc(C)c(C)c32)CC1` [Example 56], the minimal effective concentration with interferon (α) is 1.11 µM; in assay [1] it was 3.33 µM.
The matching figures for `CCOCc1nc2c(N)nc(C)c(C)c2n1CCC1CCN(C(=O)Nc2ccccc2)CC1` [Example 57]: 0.37 µM and 1.11 µM.
With `CCOCc1nc2c(N)nc(C)c(C)c2n1CCC1CCN(C(=O)NC2CCCCC2)CC1` [Example 58], the values for the minimal effective concentration (in the assay on interferon (α); in assay [1]) were 0.37 µM and 3.33 µM, respectively.
As for `CCOCc1nc2c(N)nc(C)c(C)c2n1CCC1CCN(C(=O)NCC(=O)OCC)CC1` [Example 59], the minimal effective concentration in the assay with interferon (α) was found to be 1.11 µM; in assay [1], 10 µM.
As to `CCOCc1nc2c(N)nc(C)c(C)c2n1CCC1CCN(C(=O)Nc2cccc(C#N)c2)CC1` [Example 60], the minimal effective concentration in the assay on interferon (α) is 0.37 µM; in assay [1] it was 1.11 µM.
For `CCOCc1nc2c(N)nc(C)c(C)c2n1CCC1CCN(C(=O)Nc2cccc(OC)c2)CC1` [Example 61] the same measures were 0.37 µM and 1.11 µM.
For `CCOCc1nc2c(N)nc(C)c(C)c2n1CCC1CCN(C(=O)Nc2cccc(C(C)=O)c2)CC1` [Example 62], the minimal effective concentration with interferon (α) stood at 0.37 µM; in assay [1], 1.11 µM.
Consider `CCOCc1nc2c(N)nc(C)c(C)c2n1CCC1CCN(C(=O)Nc2ccc(N(C)C)cc2)CC1` [Example 63], for which the minimal effective concentration is 0.014 µM in the assay with interferon (α) and 1.11 µM in assay [1].
Regarding `CCOCc1nc2c(N)nc(C)c(C)c2n1CCC1CCN(C(=O)Nc2cccc(SC)c2)CC1` [Example 64], the minimal effective concentration in the assay with interferon (α) is 0.37 µM; in assay [1], 1.11 µM.
Consider `CCOCc1nc2c(N)nc(C)c(C)c2n1CCC1CCN(C(=O)Nc2ccc(OC)cc2OC)CC1` [Example 65], for which the figures for the minimal effective concentration (in the assay on interferon (α); in assay [1]) were 0.37 µM and 1.11 µM, respectively.
As for `CCOCc1nc2c(N)nc(C)c(C)c2n1CCC1CCN(C(=O)N2CCOCC2)CC1` [Example 66, 2-(ethoxymethyl)-6,7-dimethyl-1-{2-[1-(morpholin-4-ylcarbonyl)piperidin-4-yl]ethyl}-1H-imidazo[4,5-c]pyridin-4-amine], the minimal effective concentration with interferon (α) is 1.11 µM; in assay [1] it was 10 µM.
